Assay results reported in patent publication US20040142910A1, “Sulfonated styrene copolymers for medical uses” (Aegis Biosciences LLC, priority 2002, published 2004).

Columns and labels:
[1] = tested on: calf pulmonary artery ECs (CPAECs); assay: endothelial cell proliferation in the absence of fibrin; type: cell-based; conditions: SNAP 0.1 and 0.4 mmol/L, L-NAME, L-NMMA 1 mmol/L
Method: (§1) Angiogenesis is a complex process that involves the activation of quiescent endothelial cells (ECs) to a proliferative and migratory phenotype and, subsequently, their redifferentiation to form vascular tubes. We hypothesized that NO contributes to angiogenesis by terminating the proliferative action of angiogenic growth factors and initiating a genetic program of EC differentiation. Human umbilical vein ECs (HUVECs) and calf pulmonary artery ECs (CPAECs) were grown directly on plastic dishes or on three-dimensional fibrin matrices. […] The addition of basic fibroblast growth factor (bFGF, […]) increased the expression of endothelial NO synthase mRNA and the production of NO in both cell types when cultured on three-dimensional fibrin gels and produced profound morphological changes characterized by the appearance of extensive capillary-like vascular structures and the loss of EC monolayers. These changes were quantified by measuring total tube length per low-power field (X 100), and a differentiation index was derived using the ratio of tube length over area covered by residual EC monolayer. In the absence of additional angiogenic factors, the differentiation index was low for both HUVECs and CPAECs (control, 1.16plus or minus0.19 and 2.07plus or minus0.87, respectively).

[2] = tested on: Human umbilical vein ECs (HUVECs); assay: as above; type: cell-based; conditions: SNAP 0.1 and 0.4 mmol/L
Method: as §1

endothelial cells (ECs) = assay: EC tube formation in response to bFGF; type: cell-based
Method: as §1

[3] = treatment of asthma; cited from earlier work
[4] = tested on: calf pulmonary artery ECs (CPAECs); assay: EC differentiation on three-dimensional fibrin gels; type: cell-based; conditions: bFGF 30 ng/nL
Method: as §1

[5] = tested on: Human umbilical vein ECs (HUVECs); assay: as above; type: cell-based; conditions: bFGF 30 ng/nL
Method: as §1

CC(=O)N[C@H](C(=O)O)C(C)(C)SN=O (racemic) [SNAP, S-nitroso-N-acetylpenicillamine]
proliferation [1]: dose-dependent inhibition | proliferation [2]: dose-dependent inhibition

COC(=O)[C@@H](N)CCCNC(=N)N[N+](=O)[O-] [L-NAME, N(G)-nitro-L-arginine methyl ester]
EC tube formation in response to bFGF (endothelial cells (ECs)): inhibited EC tube formation | proliferation [1]: significantly increased

CNC(=N)NCCC[C@H](N)C(=O)O [L-NMMA, N(G)-monomethyl-L- arginine]
proliferation [1]: significantly increased

Cn1c(=O)c2[nH]cnc2n(C)c1=O [theophylline]
minimum effective blood concentrations [3]: 6 to 10 µg/mL

bFGF: basic fibroblast growth factor
expression of endothelial NO synthase mRNA and production of NO [4]: increased | expression of endothelial NO synthase mRNA and production of NO [5]: increased
